# Reference: patent US10399932B2, “Inhibitors of indoleamine-2,3-dioxygenase for the treatment of cancer” (BRISTOL-MYERS SQUIBB COMPANY, priority 2015, dated 2019)
# Biological target: human IDO1 (Homo sapiens, UniProt P14902)
# Test: Assessment of human IDO-1 inhibitory activity in Hela cells (Interferon-gamma activated, Ehrlich reagent, absorbance at 490 nm)
# Format: cell-based
# Set-up: endogenous in cells; host or cells: HeLa cells stimulated with interferon-gamma
# Conditions: 18 hours
# Procedure: Exemplary compounds were tested for inhibition of IDO activity.
# HeLa cells were seeded at 20,000 cells per 30 µL per well with RPMI/phenol red free media containing 10% FBS in a 384-well tissue culture plate (black with clear bottoms). 50 nL of compound was added to cells and incubated at 37° C. for one hour. 20 μL of the recombinant human Interferon-gamma (R&D System, Cat. #285-IF, at final concentration of 10 ng/ml) or recombinant murine Interferon-gamma (PEPROTECH® Inc., Cat. #315-05, final concentration of 5 ng/ml) was added to activate IDO signaling. The cells were incubated for 18 hours in 37° C. incubator with 5% CO2.
# Compound treatment was stopped by adding 5 μl trichloroacetic acid to a final concentration of 3%. Subsequently, the cell plate was further incubated at 50° C. for 30 minute. An equal volume supernatant (20 μL) and 2% (w/v) Ehrlich reagent (4-dimethylaminobenzaldehyde) in glacial acetic acid were mixed in a new clear bottom 384-well plate. This plate was incubated at room temperature for 30 minutes. Absorbance at 490 nm was measured on Envision plate reader.
# Compound IC50 values were calculated using counts from unstimulated (no INF-gamma treatment) wells as 100% inhibition. INF-gamma treatment without compound treatment as 0% inhibition.
# Sequence of human IDO1 (P14902 whole entry): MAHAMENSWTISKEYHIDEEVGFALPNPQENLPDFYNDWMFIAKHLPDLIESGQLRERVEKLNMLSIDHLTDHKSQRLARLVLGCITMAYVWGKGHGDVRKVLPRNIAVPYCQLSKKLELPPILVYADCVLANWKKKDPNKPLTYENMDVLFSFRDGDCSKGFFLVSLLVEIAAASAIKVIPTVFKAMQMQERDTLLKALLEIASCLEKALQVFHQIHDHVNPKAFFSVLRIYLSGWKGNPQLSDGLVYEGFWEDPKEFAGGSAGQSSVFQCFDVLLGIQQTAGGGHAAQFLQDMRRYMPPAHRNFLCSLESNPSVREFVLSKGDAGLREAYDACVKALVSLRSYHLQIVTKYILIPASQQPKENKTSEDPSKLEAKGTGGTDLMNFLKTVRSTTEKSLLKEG
row,IC50,SMILES
1,< 5 nM,"CCC(CC(=O)O)c1cc(F)c(N(CC)C2CCOCC2)c(Nc2ccc(C#N)cn2)c1 (single isomer, unassigned) [Example 143, 3-(3-((5-cyanopyridin-2-yl)amino)-4-(ethyl (tetrahydro-2H-pyran-4-yl)amino)-5-fluorophenyl)pentanoic acid]"
2,< 5 nM,"CCC(CC(=O)O)c1cc(F)c(N(CC)C2CCOCC2)c(Nc2ccc(Cl)cc2)c1 (single isomer, unassigned) [Example 144, 3-(3-((4-chlorophenyl)amino)-4-(ethyl (tetrahydro-2H-pyran-4-yl)amino)-5-fluorophenyl)pentanoic acid]"
3,> 50 nM,"CCN(c1ccc(C(COC)CC(=O)O)cc1Nc1ccc(C#N)cc1)C1CCS(=O)(=O)CC1 (single isomer, unassigned) [Example 169, 3-(3-((4-cyanophenyl)amino)-4-((1,1-dioxidotetrahydro-2H-thiopyran-4-yl)(ethyl)amino)phenyl)-4-methoxybutanoic acid]"
4,< 5 nM,"CCCN(c1ccc(C(COC)CC(=O)O)cc1Nc1ccc(F)cc1)C1CCS(=O)(=O)CC1 (single isomer, unassigned) [Example 186, 3-(4-((1,1-dioxidotetrahydro-2H-thiopyran-4-yl)(propyl)amino)-3-((4-fluorophenyl)amino)phenyl)-4-methoxybutanoic acid]"
5,< 50 nM,"C[C@@H]1CN(c2ccc(C(CC(=O)O)C3CC3)cc2Nc2ccc(Cl)cc2)C[C@H](C)O1 (single isomer, unassigned) [Example 248]"
6,> 50 nM,"CCOc1ncc(Nc2cc(C(CC(=O)O)C3CC3)ccc2N2C[C@@H](C)O[C@@H](C)C2)cn1 (single isomer, unassigned) [Example 249]"
7,> 50 nM,"Cc1ccc(NC(=O)Nc2cc(C(CC(=O)O)C3CC3)ccc2N2C[C@@H](C)O[C@@H](C)C2)cc1 (single isomer, unassigned) [Example 251 Enantiomer 2]"
8,> 50 nM,"C[C@@H]1CN(c2ccc(C(CC(=O)O)C3CC3)cc2NC(=O)Nc2ccc(Cl)cc2F)C[C@H](C)O1 (single isomer, unassigned) [Example 253]"
9,> 50 nM,"CCN(c1ccc(C(CC(=O)O)C2CC2)cc1NC(=O)Nc1ccc(C#N)cc1)C1CCOCC1 (single isomer, unassigned) [Example 255 Enantiomer 2, 3-(3-(3-(4-Cyanophenyl)ureido)-4-(ethyl(tetrahydro-2H-pyran-4-yl)amino)phenyl)-3-cyclopropylpropanoic acid]"
10,< 5 nM,"COCCN(c1ccc(C(COC)CC(=O)O)cc1Nc1ccc(Cl)cc1)C1CCOCC1 (single isomer, unassigned) [Example 256 Enantiomer 2, 3-(3-((4-Chlorophenyl)amino)-4-((2-methoxyethyl)(tetrahydro-2H-pyran-4-yl)amino)phenyl)-4-methoxybutanoic acid]"
11,< 50 nM,"COCCN(c1ccc(C(COC)CC(=O)O)cc1Nc1ccc(C#N)cc1)C1CCOCC1 (single isomer, unassigned) [Example 259, 3-(3-((4-cyanophenyl)amino)-4-((2-methoxyethyl)(tetrahydro-2H-pyran-4-yl)amino)phenyl)-4-methoxybutanoic acid]"
12,< 50 nM,"COCCN(c1ccc(C(COC)CC(=O)O)cc1Nc1ccc(F)cc1)C1CCOCC1 (single isomer, unassigned) [Example 260, 3-(3-((4-fluorophenyl)amino)-4-((2-methoxyethyl)(tetrahydro-2H-pyran-4-yl)amino)phenyl)-4-methoxybutanoic acid]"
13,> 50 nM,"COCCN(c1ccc(C(COC)CC(=O)O)cc1NC(=O)Nc1ccc(C)cc1)C1CCOCC1 (single isomer, unassigned) [Example 261 Enantiomer 2, 4-Methoxy-3-(4-((2-methoxyethyl)(tetrahydro-2H-pyran-4-yl)amino)-3-(3-(p-tolyl)ureido)phenyl)butanoic acid]"
14,> 50 nM,"COCCN(c1ccc(C(COC)CC(=O)O)cc1NC(=O)Nc1ccc(Cl)cc1F)C1CCOCC1 (single isomer, unassigned) [Example 263, 3-(3-(3-(4-chloro-2-fluorophenyl)ureido)-4-((2-methoxyethyl)(tetrahydro-2H-pyran-4-yl)amino)phenyl)-4-methoxybutanoic acid]"
15,< 5 nM,"CCC(CC(=O)O)c1ccc(N(CC(F)F)C2CCOCC2)c(Nc2ccc(Cl)cc2)c1 (single isomer, unassigned) [Example 318 Enantiomer 2, 3-(3-((4-Chlorophenyl)amino)-4-((2,2-difluoroethyl)(tetrahydro-2H-pyran-4-yl)amino)phenyl)pentanoic acid]"
16,< 5 nM,"COCC(CC(=O)O)c1ccc(N(CC(F)F)C2CCOCC2)c(Nc2ccc(Cl)cc2)c1 (single isomer, unassigned) [Example 321 Enantiomer 2, 3-(3-((4-Chlorophenyl)amino)-4-((2,2-difluoroethyl)(tetrahydro-2H-pyran-4-yl)amino)phenyl)-4-methoxybutanoic acid]"
17,< 5 nM,"COCC(CC(=O)O)c1ccc(N(CC(F)F)C2CCOCC2)c(Nc2ccc(C#N)cc2)c1 (single isomer, unassigned) [Example 323]"

row,IC50,SMILES
1,< 5 nM,"CCC(CC(=O)O)c1ccc(N(CC)C2CCS(=O)(=O)CC2)c(Nc2ccc(Cl)cc2)c1 (single isomer, unassigned) [Example 334 Enantiomer 2, 3-(3-((4-Chlorophenyl)amino)-4-((1,1-dioxidotetrahydro-2H-thiopyran-4-yl)(ethyl)amino)phenyl)pentanoic acid]"
2,< 50 nM,"CCN(c1ccc(C(CC(=O)O)C2CC2)cc1Nc1ccc(OC)nc1)C1CCS(=O)(=O)CC1 (single isomer, unassigned) [Example 346, 3-cyclopropyl-3-(4-((1,1-dioxidotetrahydro-2H-thiopyran-4-yl)(ethyl)amino)-3-((6-methoxypyridin-3-yl)amino)phenyl)propanoic acid]"
3,< 5 nM,"CCN(c1ccc(C(CC(=O)O)C2CC2)cc1Nc1ccc(F)cc1)C1CCS(=O)(=O)CC1 (single isomer, unassigned) [Example 347, 3-cyclopropyl-3-(4-((1,1-dioxidotetrahydro-2H-thiopyran-4-yl)(ethyl)amino)-3-((4-fluorophenyl)amino)phenyl)propanoic acid]"
4,> 50 nM,"CCN(c1ccc([C@H](COC)CC(=O)O)cc1Nc1ncc(F)cc1F)C1CCOCC1 (single isomer, unassigned) [Example 395]"
5,< 50 nM,"CCN(c1ccc([C@H](COC)CC(=O)O)cc1Nc1ccc(C)cc1)C1CCOCC1 (single isomer, unassigned) [Example 410]"
6,< 5 nM,"CCN(c1ccc([C@H](COC)CC(=O)O)cc1Nc1ccc(Cl)cc1)C1CCOCC1 (single isomer, unassigned) [Example 413]"
7,> 50 nM,"CCN(c1ccc(C(COC)CC(=O)O)cc1NC(=O)Nc1ccc(C#N)cc1)C1CCOCC1 (single isomer, unassigned) [Example 422 E2]"
8,< 5 nM,"CC[C@@H](CC(=O)O)c1ccc(N(CC)C2CCOCC2)c(Nc2ccc(Cl)cn2)c1 (single isomer, unassigned) [Example 460]"
9,< 5 nM,"CC[C@H](CC(=O)O)c1ccc(N(CC)C2CCOCC2)c(Nc2ccc(C#N)cn2)c1 (single isomer, unassigned) [Example 504]"
10,< 5 nM,"CCCN(c1ccc([C@@H](COC)CC(=O)O)cc1Nc1cnc(OCC2CC2)nc1)C1CCOCC1 (single isomer, unassigned) [Example 543]"
11,< 50 nM,"CCCOc1ncc(Nc2cc(C(C)CC(=O)O)ccc2N(CC)C2CCOCC2)cn1 (single isomer, unassigned) [Example 634, 3-(4-(ethyl(tetrahydro-2H-pyran-4-yl)amino)-3-((2-propoxypyrimidin-5-yl)amino)phenyl)butanoic acid]"
12,> 50 nM,"CCN(c1ccc(C(C)CC(=O)O)cc1Nc1cnc(OC(C)C)nc1)C1CCOCC1 (single isomer, unassigned) [Example 635, 3-(4-(ethyl(tetrahydro-2H-pyran-4-yl)amino)-3-((2-isopropoxypyrimidin-5-yl)amino)phenyl)butanoic acid]"
13,> 50 nM,"CCOc1ncc(Nc2cc(C(CC)CC(=O)O)ccc2N2CCN(C(=O)OC)CC2)cn1 (single isomer, unassigned) [Example 670, 3-(3-((2-Ethoxypyrimidin-5-yl)amino)-4-(4-(methoxycarbonyl)piperazin-1-yl)phenyl)pentanoic acid]"
14,> 50 nM,"CCOc1ncc(Nc2cc(C(CC)CC(=O)O)ccc2N2CCNCC2)cn1 (single isomer, unassigned) [Example 673]"
15,> 50 nM,"CC(CC(=O)O)c1ccc(N2C[C@@H](C)O[C@@H](C)C2)c(NC(=O)Nc2ccc(C#N)cc2)c1 (single isomer, unassigned) [Example 752]"
16,> 50 nM,"Cc1ccc(NC(=O)Nc2cc(C(C)CC(=O)O)ccc2N2C[C@@H](C)O[C@@H](C)C2)cc1 (single isomer, unassigned) [Example 753]"
17,< 5 nM,"CCN(c1cc(F)c([C@@H](COC)CC(=O)O)cc1Nc1ccc(Cl)cc1)C1CCOCC1 (single isomer, unassigned) [Example 844, 3-(5-((4-Chlorophenyl)amino)-4-(ethyl(tetrahydro-2H-pyran-4-yl)amino)-2-fluorophenyl)-4-methoxybutanoic acid]"
